EP4810508A1, “ARABINOSE DERIVATIVE COMPOUND, AND COMPOSITION COMPRISING SAME FOR PREVENTING OR TREATING DEGENERATIVE BRAIN DISEASES” (Digmbio. Inc., priority 2023, dated 2025)
Where two headings read alike, the source gives them in different places.

Assays:
male ICR mice [1] = test: Scopolamine-induced cognitive impairment model: Y-maze test; type: in vivo; conditions: for percent recovery of cognitive function (Y-maze) at 50 mg/kg: Mus musculus, po, 168 h; for in vivo Y-maze (%): spontaneous alternation, scopolamine 1 mg/kg i.p., compounds 50 mg/kg oral for 7 days, donepezil 5 mg/kg (avg.)
Description: (§1) A memory loss rodent animal model induced by scopolamine intraperitoneal administration is used, and an evaluation method for memory uses a Y-maze test and a passive avoidance test (PAT). Scopolamine is a representative experimental model showing an impairment of cognitive function similar to AD patients by blocking neurotransmitters when administered to an animal as an antagonist of a muscarinic acetylcholine receptor, and as a cognitive function evaluation technique, a Y-maze test and a passive avoidance experiment, which are general and representative methods, were used, and in order to objectify the efficacy levels of the compounds, a group administered with donepezil (Aricept, Eisa) as a positive control material was separately provided to compare the efficacy levels of the compounds.
(§2) In order to evaluate cognitive function, 5-week-old male ICR mice were used, the compounds to be evaluated were prepared at a dose of 50 mg/kg/ml and repeatedly orally administered at a predetermined time for 7 days, and the positive control material was carried out at 5 mg/kg/ml. After the last administration, after 30 minutes of intraperitoneal administration of 1 mg/kg/2 ml of scopolamine, a Y-maze test and a passive avoidance test, which are cognitive function evaluations, were performed.
The Y-maze test is a method for evaluating the ability to sequentially act as an experiment for measuring short-term memory. The measurement equipment is composed of three branches, each branch has a length of 42 cm, a width of 3 cm, and a height of 12 cm, and an angle at which three branches are folded is 120°. Experimental animals are put into each branch for 8 minutes, and the number of times of entering the branches to the tail of the experimental animal and the case of being sequentially received in each branch are scored (actual alternation). The alternation behavior is defined as entering not to overlap all three, and is calculated by the following equation. [formula]

male ICR mice [2] = test: Scopolamine-induced cognitive impairment model: passive avoidance test (PAT); type: in vivo; conditions: for percent recovery of memory in passive avoidance test (normal group = 100, scopolamine control = 0) at 50 mg/kg: Mus musculus, po, 168 h, read-out: in vivo(effect) PAT (%); for in vivo PAT: time staying in bright room (step-through latency), scopolamine 1 mg/kg i.p., compounds 50 mg/kg oral for 7 days, donepezil 5 mg/kg (avg.); for cognitive function recovery compared to normal animals, passive avoidance test (effect %): compounds 50 mg/kg, donepezil 5 mg/kg, orally for 7 days, scopolamine 1 mg/kg intraperitoneal
Description: as §1, §2
In addition, the passive avoidance test was conducted using an avoidance learning box (Jeondo B&P, Korea, Seoul), and the avoidance learning box is divided into a dark room and a bright room, and when a laboratory animal is put into a bright room, the subject goes beyond the dark room. At the moment, an electric shock of 0.5 mA is applied for 5 seconds, and when the next day experimental animal is put back into a bright room, an electric shock in a dark room is memorized and stay in a bright room. In this case, a step-through latency is measured to evaluate memory. The efficacy of the compounds of the present invention against the normal group and the control group in the Y-maze test and the passive avoidance test was described in the following Table 3 (Scopolamine-induced cognitive impairment model result).

HRE/Luc/HEK293 cells = test: HRE (Hypoxia Response Element) luciferase assay; type: cell-based, human; conditions: for fold induction at 10 µM / fold induction at 100 µM: Homo sapiens; for HRE assay: increase in HRE expression levels by the test substance relative to the vehicle in HRE/Luc/HEK293 cells
Outline: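 HRE-luciferase HEK293 cells in MEM/10% FBS pretreated with compound 6 h, then held under hypoxia (0.1% O2) 18 h; luminescence read after lysis. Scored as fold increase over vehicle, with twofold threshold at 100, 10 or 1 µM.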

[3] = read-out: in vivo(effect) Y-maze (%)
[4] = HEK293, fold increase of HRE expression, hypoxic conditions (O2 0.1%) 18 hours, Table 2, read-out: HRE-increasing 10uM
[5] = HEK293, fold increase of HRE expression, hypoxic conditions (O2 0.1%) 18 hours, Table 2, read-out: HRE-increasing 100uM
[6] = read-out: cognitive function recovery compared to normal animals, Y-maze experiment (effect %)
[7] = HEK293, 18 h, Table 2 (Examples 37-74, 52), read-out: HKt-increasing 10uM
[8] = HEK293, 18 h, Table 2 (Examples 37-74, 52), read-out: HKt-increasing 100uM

Structure (SMILES) | percent recovery of cognitive function (Y-maze) at 50 mg/kg (male ICR mice [1]; [3]) [%] | in vivo Y-maze (%) (male ICR mice [1]) | percent recovery of memory in passive avoidance test (normal group = 100, scopolamine control = 0) at 50 mg/kg (male ICR mice [2]) [%] | in vivo PAT (male ICR mice [2]) [s] | fold induction at 10 µM (HRE/Luc/HEK293 cells; [4]) | HRE expression (HRE/Luc/HEK293 cells; concentration of 10 µM) | HRE assay (HRE/Luc/HEK293 cells) | cognitive function recovery compared to normal animals, passive avoidance test (effect %) (male ICR mice [2]) [%] | fold induction at 100 µM (HRE/Luc/HEK293 cells; [5]) | percent recovery of cognitive function (Y-maze) at 50 mg/kg (male ICR mice [1]; [6]) [%] | fold induction at 10 µM (HRE/Luc/HEK293 cells; [7]) | fold induction at 100 µM (HRE/Luc/HEK293 cells; [8]) | HRE expression (HRE/Luc/HEK293 cells; low concentration of 1 µM)
CC(C)c1ccc(Cc2ccc(O[C@H]3OC[C@H](O)[C@H](O)[C@H]3O)c(Cl)c2)cc1 [Example 8, (2R,3R,4S,5S)-2-(2-chloro-4-(4-isopropylbenzyl)phenoxy)tetrahydro-2H-pyran-3,4,5-triol] | 43 | 58 | 11 | 58 | 4.2 | more than threefold | ••• |  |  |  |  |  | 
COc1ccc(C(C)(C)c2ccc(O[C@H]3OC[C@H](O)[C@H](O)[C@H]3O)cc2)cc1 [Example 30, (2R,3R,4S,5S)-2-(4-(2-(4-methoxyphenyl)propan-2-yl)phenoxy)tetrahydro-2H-pyran-3,4,5-triol] | 45 | 63 | 60 | 194 | 1.1 |  |  | ≥ 50 | 1.4 |  |  |  | 
COc1ccc(Cc2ccc(O[C@H]3OC[C@H](O)[C@H](O)[C@H]3O)cc2)cc1 [Example 3, (2R,3R,4S,5S)-2-(4-(4-methoxybenzyl)phenoxy)tetrahydro-2H-pyran-3,4,5-triol] | 59 | 61 | 91 | 206 | 1.5 |  | •• | 91 | 3.1 | 59 |  |  | 
O[C@@H]1[C@@H](O)[C@@H](Oc2ccc(Cc3ccc(Oc4ccccc4)cc3)cc2)OC[C@@H]1O [Example 9, (2R,3R,4S,5S)-2-(4-(4-phenoxybenzyl)phenoxy) tetrahydro-2H-pyran-3,4,5-triol] | 9 | 57 | 32 | 127 | 1.2 |  | • |  | < 1 |  |  |  | 
CC(C)(C)c1ccc(Oc2ccc(O[C@H]3OC[C@H](O)[C@H](O)[C@H]3O)cc2)cc1 [Example 36] | 42 | 59 | 17 | 76 | 3.5 | more than threefold |  |  | < 1 |  |  |  | 
O[C@@H]1[C@@H](O)[C@@H](Oc2ccc(Cc3ccccc3)cc2)OC[C@@H]1O [Example 1, (2R,3R,4S,5S)-2-(4-benzylphenoxy)tetrahydro-2H-pyran-3,4,5-triol] | 38 | 64 | 35 | 133 | 1.2 |  | •• |  | 2.2 |  |  |  | 
CC(C)c1ccc(Cc2ccc(O[C@H]3OC[C@H](O)[C@H](O)[C@H]3O)c(F)c2)cc1 [Example 41, (2R,3R,4S,5S)-2-(2-fluoro-4-(4-isopropylbenzyl)phenoxy)tetrahydro-2H-pyran-3,4,5-triol] | 54 | 59.8 | 16 | 69.6 |  |  |  |  |  | ≥ 50 | 3 | 3.2 | more than threefold
CC(C)c1ccc(Oc2ccc(O[C@H]3OC[C@@H](O)[C@H](O)[C@H]3O)cc2)cc1 [Example 56, (2R,3R,4S,5R)-2-(4-(4-isopropylphenoxy)phenoxy)tetrahydro-2H-pyran-3,4,5-triol] | 64 | 61.8 | 81 | 217.3 |  |  |  | ≥ 50 |  | ≥ 50 | 2.7 | 1.4 | 
CC(C)c1ccc(Cc2ccc(S[C@H]3OC[C@H](O)[C@H](O)C3O)cc2)cc1 (stereo partly drawn) [Example 27, (2R,4S,5S)-2-((4-(4-isopropylbenzyl)phenyl)thio) tetrahydro-2H-pyran-3,4,5-triol] | 44 | 62 | 28 | 80 | 3.7 | more than threefold |  |  | < 1 |  |  |  | 
COc1cccc(Cc2ccc(O[C@H]3OC[C@H](O)[C@H](O)[C@H]3O)cc2)c1 [Example 15, (2R,3R,4S,5S)-2-(4-(3-methoxybenzyl)phenoxy)tetrahydro-2H-pyran-3,4,5-triol] | 66 | 66 | 30 | 142 | 1.1 |  |  |  | 2.2 | ≥ 50 |  |  | 
Cc1ccc(Oc2ccc(O[C@H]3OC[C@H](O)[C@H](O)[C@H]3O)cc2)cc1 [Example 33, (2R,3R,4S,5S)-2-(4-(para-tolyloxy)phenoxy) tetrahydro-2H-pyran-3,4,5-triol] | 30 | 56 | 10 | 58 | 3.8 | more than threefold |  |  | 2.5 |  |  |  | 
O[C@@H]1[C@@H](O)[C@@H](Oc2ccc(Cc3ccc(Cl)cc3)cc2)OC[C@@H]1O [Example 14, (2R,3R,4S,5S)-2-(4-(4-chlorobenzyl)phenoxy)tetrahydro-2H-pyran-3,4,5-triol] | 7 | 57 | 33 | 129 | 1.9 |  | •• |  | 2.5 |  |  |  | 
